# Paper PMC11923649, “Novel C-2 Aromatic Heterocycle-Substituted Triterpenoids Inhibit Hedgehog Signaling in GLI1 Overexpression Cancer Cells” (ACS Omega, 2025)
# Like-named read-outs stand apart in the source and are kept apart here.
# Legend:
# CCRF-CEM = experiment: MTS cytotoxicity assay, 72 h, CCRF-CEM; type: cell-based; conditions: Table 1; for IC50: Homo sapiens, CCRF-CEM, 72 h, MTS; for SI (selectivity index): IC50 of CCRF-CEM line vs average of both fibroblasts (BJ and MRC-5)
# How it was run: (§1)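 IC50 values come from a tetrazolium (MTS) read-out at 490 nm taken after continuous 72 h exposure to a twofold dilution series from 50 down to 0.0975 μmol/L, with compound added one day after seeding.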
# [1] = test system: Hh signaling (Gli Reporter-NIH3T3, Gli-responsive FLuc); experiment: Gli Reporter-NIH3T3 luciferase assay, mSHH or SAG induced; type: cell-based; conditions: mean ± SD, n=3
# Experimental: To further validate the effect of new triterpenes on Hh signaling, we used the commercial reporter cell line NIH3T3–Gli reporter, which expresses the firefly luciferase (FLuc) gene under the control of a Gli-responsive element.
# Gli Reporter-NIH3T3 (BPS Bioscience) cells were cultured in DMEM medium supplemented with 10% iron-supplemented bovine calf serum and under the selection pressure of Geneticin (500 μg/mL) at 37 °C in an atmosphere of 5% CO2 with 95% humidity. The Gli Reporter-NIH3T3 cell line expresses the firefly luciferase (FLuc) gene under the control of a Gli responsive element stably integrated into NIH3T3 cells. The cell line was validated through response to mSHH stimulation and the effect of commercially available Hh inhibitors (Cyclopamine). The assay was performed in 384-well white opaque microplates. Gli Reporter-NIH3T3 cells were transferred to Opti-MEM medium with a reduced content of 0.5% (v/v) iron-supplemented bovine calf serum, supplemented with a 1% solution of nonessential amino acids, 1 mmol/L sodium pyruvate, and 10 mmol/L HEPES, and seeded on the panel in a volume of 25 μL of cell suspension per well at a concentration of 2.5 × 10^5/mL. The following day, compounds were transferred at the concentration range of 16–0.25 μmol/L (dilution factor 2) and incubated for 2 h. Then, the mSHH ligand at concentrations of 0.25 and 0.5 μg/mL and SAG (a synthetic SMO agonist) at concentrations of 2 and 4 nmol/L were added to the wells. Controls representing DMSO-treated cells were also included at a concentration of 0.1% (v/v). Cells were incubated for another 24–30 h and then kept for 30 min at room temperature, and finally, 25 μL of Britelite plus reagent was added to each well. Plates were placed on a shaker to achieve complete cell lysis, and luminescence was measured after 3 min on an EnVision plate reader.
# [2] = test system: A549 (lung adenocarcinoma); experiment: MTS cytotoxicity assay, 72 h, A549; type: cell-based; conditions: Homo sapiens, A549, 72 h
# How it was run: as §1
# [3] = Parallel Artificial Membrane Permeability Assay (PAMPA); type: in vitro ADME; conditions: read-out: PAMPA log Pe (converted)
# Text: The Parallel Artificial Membrane Permeability Assay (PAMPA) has emerged as a primary screen for determining passive transcellular permeability. […] The Caco-2 and MDCK-MDR1 permeability assays are established models of intestinal[37] and blood-brain barriers, respectively.[38]
# [4] = SAG (SMO agonist) 2 nM after 2 h preincubation, read-out: IC50 SAG stimulation 2 nM
# [5] = SAG (SMO agonist) 4 nM after 2 h preincubation, read-out: IC50 SAG stimulation 4 nM
# [6] = mSHH 0.25 μg/mL after 2 h preincubation, read-out: IC50 mSHH stimulation 0.25 (μg/mL)
# [7] = mSHH 0.5 μg/mL after 2 h preincubation, read-out: IC50 mSHH stimulation 0.5 (μg/mL)
SMILES,IC50 (CCRF-CEM),SI (selectivity index) (CCRF-CEM),"IC50 [1, 4]","IC50 [1, 5]","IC50 [1, 6]","IC50 [1, 7]",IC50 ([2]; Table 1),IC50 ([2]; full Table S1),Papp [3]
"C=C(C)[C@@H]1CC[C@]2(C(=O)O)CC[C@]3(C)C(CCC4[C@@]5(C)C=C(c6ccoc6)C(=O)C(C)(C)C5CC[C@]43C)C12 (stereo partly drawn) [Compound 11b, 2-(Furan-3-yl)-3-oxolupa-1,20(29)-dien-28-oic acid]",6 µM,5,3.5 ± 0.2 µM,4.1 ± 0.4 µM,3.2 ± 0.3 µM,2.4 ± 0.3 µM,12 µM,12.1 µM,0.0162 ×10⁻⁶ cm/s
"C=C(C)[C@@H]1CC[C@]2(C(=O)O)CC[C@]3(C)C(CCC4[C@@]5(C)C=C(c6ccco6)C(=O)C(C)(C)C5CC[C@]43C)C12 (stereo partly drawn) [Compound 11a, 2-(Furan-2-yl)-3-oxolupa-1,20(29)-dien-28-oic acid]",8.7 µM,3.8,4.5 ± 0.6 µM,3.8 ± 0.4 µM,3.5 ± 0.5 µM,1.9 ± 0.2 µM,12 µM,12.1 µM,0.0158 ×10⁻⁶ cm/s
